Results on 2 compounds are retold here after ChEMBL document CHEMBL5154820 (Eur J Med Chem, 2022).

By inhibition is commonly meant the percentage by which the read-out fell short of the control. Broadly, the IC50 is the concentration that gives 50% inhibition.

Data set [1] relates to HUVEC. The data set can be described thus: Vascular disruptive activity against HUVEC-formed vascular tube assessed as damage of vascular tube on matrigel substratum at 0.2 uM measured after 2 hrs. The data set is classed as functional, Homo sapiens.
Data set [2] deals with HeLa. The data set can be described thus: Induction of cell cycle arrest in human HeLa cells assessed as < 2N cells at 3 nM measured after 24 hrs by propidium iodide staining based flow cytometric analysis analysis ( Rvb = 9.32%). Type of data set: functional. On the technique in general: A flow cytometer gives signals particle by particle.
Data set [3] concerns HeLa. Nature of the data set: Induction of cell cycle arrest in human HeLa cells assessed as S-phase at 1.5 nM measured after 24 hrs by propidium iodide staining based flow cytometric analysis analysis ( Rvb = 23.4%). The data set is classed as functional.
In data set [4] the test system is HeLa. The data set can be described thus: Induction of cell cycle arrest in human HeLa cells assessed as 4N cells at 3 nM measured after 24 hrs by propidium iodide staining based flow cytometric analysis analysis ( Rvb = 17.1%). Type of data set: functional.
In data set [5] the test system is HeLa. Nature of the data set: Induction of cell cycle arrest in human HeLa cells assessed as 4N cells at 6 nM measured after 24 hrs by propidium iodide staining based flow cytometric analysis analysis ( Rvb = 17.1%). Type of data set: functional.
The test system of data set [6] is HeLa. Nature of the data set: Induction of apoptosis in human HeLa cells assessed as viable cells at 3 nM measured after 24 hrs by Annexin V-FITC/7-AAD staining based flow cytometric analysis (reference value: 75.5%). The conditions noted are these: read-out: Activity. The data set is classed as functional.
Data set [7] relates to HeLa. The data set can be described thus: Induction of apoptosis in human HeLa cells assessed as early apoptotic cells at 1.5 nM measured after 24 hrs by Annexin V-FITC/7-AAD staining based flow cytometric analysis (reference value: 18.8%). The data set is classed as functional.
In data set [8] the test system is HeLa. The data set can be described thus: Induction of apoptosis in human HeLa cells assessed as late apoptotic cells at 6 nM measured after 24 hrs by Annexin V-FITC/7-AAD staining based flow cytometric analysis (reference value: 5.22%). Type of data set: functional.
Data set [9] deals with HeLa. Nature of the data set: Induction of apoptosis in human HeLa cells assessed as necrotic cells at 1.5 nM measured after 24 hrs by Annexin V-FITC/7-AAD staining based flow cytometric analysis (reference value: 0.45%). Type of data set: functional.
The subject of data set [10] is HeLa. Nature of the data set: Antimigratory activity against human HeLa cells at 6 nM measured after 24 hrs by scratch wound healing based fluorescence inverted microscopic analysis. The data set is classed as functional.
The species entered for data set [11] is Bos taurus. Nature of the data set: Inhibition of calf brain tubulin polymerization upto 50 uM measured after 40 mins by spectrophotometric analysis. The following applies: DDE = dose-dependent effect.
For data set [12], the target named is Tubulin (Sus scrofa) (UniProt P02554+P02550). Nature of the data set: Inhibition of pig brain tubulin polymerization at 6 uM by spectrophotometer analysis relative to control. Set-up: scale not given: the % may be the effect or the level left. The conditions noted are these: Sus scrofa domesticus.
Sequence of Tubulin (Sus scrofa) (P02550 whole entry, looked up): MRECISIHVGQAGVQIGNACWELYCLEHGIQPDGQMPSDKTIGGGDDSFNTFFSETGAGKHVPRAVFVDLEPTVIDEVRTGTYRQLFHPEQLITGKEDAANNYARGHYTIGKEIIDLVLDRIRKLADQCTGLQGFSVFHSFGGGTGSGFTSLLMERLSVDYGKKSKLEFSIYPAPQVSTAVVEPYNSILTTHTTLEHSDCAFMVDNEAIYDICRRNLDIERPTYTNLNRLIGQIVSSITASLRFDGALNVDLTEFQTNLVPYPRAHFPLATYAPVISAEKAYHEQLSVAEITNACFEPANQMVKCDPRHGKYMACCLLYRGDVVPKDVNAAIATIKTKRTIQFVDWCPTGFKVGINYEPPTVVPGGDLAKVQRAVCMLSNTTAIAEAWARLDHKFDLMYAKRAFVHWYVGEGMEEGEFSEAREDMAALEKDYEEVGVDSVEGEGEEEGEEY
Sequence of Tubulin (Sus scrofa) (P02554 whole entry, looked up): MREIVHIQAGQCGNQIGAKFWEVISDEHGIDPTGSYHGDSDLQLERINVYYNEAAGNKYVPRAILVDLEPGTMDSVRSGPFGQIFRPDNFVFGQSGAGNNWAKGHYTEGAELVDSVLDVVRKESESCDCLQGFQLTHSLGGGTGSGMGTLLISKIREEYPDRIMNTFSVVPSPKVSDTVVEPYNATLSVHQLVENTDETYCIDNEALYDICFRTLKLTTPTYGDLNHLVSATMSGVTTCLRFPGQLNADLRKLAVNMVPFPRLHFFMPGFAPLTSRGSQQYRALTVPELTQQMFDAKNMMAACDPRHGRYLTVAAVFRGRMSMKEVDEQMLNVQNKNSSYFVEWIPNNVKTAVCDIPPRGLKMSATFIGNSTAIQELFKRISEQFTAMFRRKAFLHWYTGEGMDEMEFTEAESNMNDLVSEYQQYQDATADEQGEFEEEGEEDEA
For data set [13], the system named is HeLa. The data set can be described thus: Induction of cell cycle arrest in human HeLa cells assessed as 2N cells at 0.2 uM measured after 24 hrs by propidium iodide staining based flow cytometric analysis analysis ( Rvb = 47.4%). Type of data set: functional.
The test system of data set [14] is HeLa. The data set can be described thus: Induction of cell cycle arrest in human HeLa cells assessed as S-phase at 0.1 uM measured after 24 hrs by propidium iodide staining based flow cytometric analysis analysis ( Rvb = 15.5%). The data set is classed as functional.
Data set [15] deals with HeLa. The data set can be described thus: Induction of cell cycle arrest in human HeLa cells assessed as 4N cells at 0.2 uM measured after 24 hrs by propidium iodide staining based flow cytometric analysis analysis ( Rvb = 20.3%). The data set is classed as functional.
Data set [16] concerns HeLa. Nature of the data set: Induction of cell cycle arrest in human HeLa cells assessed as >4N cells at 0.2 uM measured after 24 hrs by propidium iodide staining based flow cytometric analysis analysis ( Rvb = 8.84%). Type of data set: functional.
Data set [17] concerns HeLa. Nature of the data set: Induction of cell cycle arrest in human HeLa cells assessed as accumulation of cells at G2/M phase at 0.1 uM after 24 hrs by propidium iodide staining based flow cytometric analysis (reference value: 20.3%). Type of data set: functional.
Data set [18] relates to HeLa. The data set can be described thus: Induction of cell cycle arrest in human HeLa cells assessed as accumulation of cells at G2/M phase at 0.2 uM after 24 hrs by propidium iodide staining based flow cytometric analysis (reference value: 20.3%). The data set is classed as functional.
The subject of data set [19] is HeLa. The data set can be described thus: Induction of apoptosis in human HeLa cells assessed as viable cells at 0.4 uM measured after 24 hrs by Annexin V-FITC/7-AAD staining based flow cytometric analysis (reference value: 70.1%). The data set is classed as functional. The conditions noted are these: read-out: Activity.
The subject of data set [20] is HeLa. Nature of the data set: Induction of apoptosis in human HeLa cells assessed as late apoptotic cells at 0.4 uM measured after 24 hrs by Annexin V-FITC/7-AAD staining based flow cytometric analysis (reference value: 8.51%). Type of data set: functional.
Data set [21] concerns HeLa. Nature of the data set: Inhibition of colony formation in human HeLa cells at 100 nM and treated for every 48 hrs with fresh medium measured after 14 days by crystal violet staining method. Type of data set: functional. More on the design: scale not given: the % may be the effect or the level left. The following applies: time 14 day.
In data set [22] the test system is HeLa. The data set can be described thus: Inhibition of colony formation in human HeLa cells at 50 nM and treated for every 48 hrs with fresh medium measured after 14 days by crystal violet staining method ( Rvb = 67.3%). The data set is classed as functional. More on the design: scale not given: the % may be the effect or the level left. The conditions noted are these: time 14 day.

Data set [23] in a line: Apparent clearance during terminal phase in C57 nude mouse at 30 mg/kg, ip measured at 0.083 to 24 hrs by LC/MS/MS analysis. The data set is classed as ADME, organism-based. The conditions noted are these: in vivo, time 0.083-24 hrs, read-out: CLz/F (converted).
The nature of data set [24]: Acute toxicity in ICR female mouse assessed as body weight gain at 100 to 1000 mg/kg, ip measured daily for 14 days. Type of data set: organism-based. The conditions noted are these: in vivo, 336 h, dose 100-1000 mg/kg, time 14 day.
Data set [25] can be described thus: Acute toxicity against ICR mouse assessed as glycogen deposition in liver at 1000 mg/kg, ip measured after 14 days by H and E staining method. The conditions noted are these: in vivo, 336 h, time 14 day. Type of data set: organism-based.
Data set [26] in a line: Acute toxicity against ICR mouse assessed as inflammatory cell infiltration in liver at 1000 mg/kg, ip measured after 14 days by H and E staining method. The following applies: in vivo, 336 h, time 14 day. The data set is classed as organism-based.
Data set [27] has as its target hERG (KCNH2) (Homo sapiens, UniProt Q12809). Nature of the data set: Inhibition of human ERG expressed in CHO cells at 40 uM with holding potential of -80 mV by whole cell patch clamp assay relative to control. The conditions noted are these: CHO cells that express hERG. Type of data set: toxicity, cell-based.
Data set [28] concerns the target Voltage-gated inwardly rectifying potassium channel KCNH2 (Homo sapiens, UniProt Q12809). Nature of the data set: Inhibition of human ERG expressed in CHO cells with holding potential of -80 mV by whole cell patch clamp assay. The data set is classed as toxicity, cell-based. A general note: The patch-clamp technique gives a direct electrical read-out from membranes.

The test system of data set [29] is HeLa. The data set can be described thus: Antitumour activity against human HeLa cells xenografted in BABL/c mouse assessed as reduction in tumor weight at 60 mg/kg, ip administered daily for 21 days ( Rvb = 3.36 g). The conditions noted are these: time 21 day. Type of data set: functional. On the technique in general: In xenograft studies the graft and the host belong to different species.

Data set [30] in a line: Nephrotoxicity in BABL/c mouse assessed as increased creatinine level at 60 mg/kg, ip administered daily for 21 days relative to vehicle. The data set is classed as toxicity, organism-based. The following applies: in vivo, 504 h, time 21 day.
Data set [31] is described as follows: Nephrotoxicity in BABL/c mouse assessed as increased creatinine level at 30 mg/kg, ip administered daily for 21 days followed by addition of 3 mg/kg DDP for every 2 days relative to vehicle. Type of data set: toxicity, organism-based. The following applies: in vivo, 504 h, time 21 day.
The nature of data set [32]: Nephrotoxicity in BABL/c mouse assessed as increased uric acid level at 30 mg/kg, ip administered daily for 21 days relative to vehicle. Type of data set: toxicity, organism-based. The conditions noted are these: in vivo, 504 h, time 21 day.
Data set [33] is described as follows: Toxicity against BABL/c mouse assessed as morphological changes in heart at 30 mg/kg, ip administered daily for 21 days followed by addition of 3 mg/kg DDP for every 2 days by H and E staining method. The data set is classed as organism-based. The conditions noted are these: in vivo, 504 h, time 21 day.
Data set [34] can be described thus: Toxicity against BABL/c mouse assessed as glomerular crescent hyperplasia in kidney at 60 mg/kg, ip administered daily for 21 days by H and E staining method. The data set is classed as organism-based. The conditions noted are these: in vivo, 504 h, time 21 day.

Sequence of Voltage-gated inwardly rectifying potassium channel KCNH2 (Q12809 whole entry): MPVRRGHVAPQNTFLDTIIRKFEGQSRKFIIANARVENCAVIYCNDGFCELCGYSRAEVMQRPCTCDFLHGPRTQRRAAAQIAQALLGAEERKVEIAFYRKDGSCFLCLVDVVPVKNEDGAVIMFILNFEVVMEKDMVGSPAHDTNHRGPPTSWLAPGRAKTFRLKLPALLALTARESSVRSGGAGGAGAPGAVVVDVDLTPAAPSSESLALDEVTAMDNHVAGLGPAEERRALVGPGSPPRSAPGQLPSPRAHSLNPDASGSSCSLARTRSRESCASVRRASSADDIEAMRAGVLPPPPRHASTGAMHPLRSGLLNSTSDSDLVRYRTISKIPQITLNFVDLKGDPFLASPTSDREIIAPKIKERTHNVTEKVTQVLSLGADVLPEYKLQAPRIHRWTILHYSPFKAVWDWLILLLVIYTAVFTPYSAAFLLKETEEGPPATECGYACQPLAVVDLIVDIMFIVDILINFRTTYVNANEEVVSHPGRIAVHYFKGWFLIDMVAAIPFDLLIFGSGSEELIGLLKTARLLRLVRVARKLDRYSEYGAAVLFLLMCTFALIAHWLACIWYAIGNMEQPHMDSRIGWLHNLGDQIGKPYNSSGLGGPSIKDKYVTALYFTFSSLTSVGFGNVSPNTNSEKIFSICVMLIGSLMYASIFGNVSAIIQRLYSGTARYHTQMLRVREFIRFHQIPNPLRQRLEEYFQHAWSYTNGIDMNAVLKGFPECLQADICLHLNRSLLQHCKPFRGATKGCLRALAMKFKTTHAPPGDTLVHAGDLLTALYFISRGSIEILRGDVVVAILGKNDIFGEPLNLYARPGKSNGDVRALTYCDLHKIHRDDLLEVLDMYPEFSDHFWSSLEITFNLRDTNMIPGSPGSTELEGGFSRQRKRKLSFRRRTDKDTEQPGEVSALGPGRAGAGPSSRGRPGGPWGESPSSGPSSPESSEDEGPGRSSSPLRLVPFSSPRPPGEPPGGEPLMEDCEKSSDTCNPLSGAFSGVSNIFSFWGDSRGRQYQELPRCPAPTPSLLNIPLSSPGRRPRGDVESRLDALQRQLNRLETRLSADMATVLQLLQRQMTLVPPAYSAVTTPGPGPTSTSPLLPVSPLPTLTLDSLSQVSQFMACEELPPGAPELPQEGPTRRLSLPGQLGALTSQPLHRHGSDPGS
Sequence of hERG (KCNH2) (Q12809 whole entry): as above

As to `COc1ccc(/C=C\c2cc(OC)c(OC)c(OC)c2)cc1O` [COMBRETASTATIN A4], the Activity in [1] amounted to 100%; in [2] it was 7.77%; in data set [3], 12%; in data set [4] it was 28.2%; in data set [5], 35.3%; in data set [7], 23.5%. Moreover, the Activity in data set [8] is 5.94%; in data set [9], 0.91%; in data set [10], 73%. Moreover, in data set [6], the viability at 0.003 µM worked out at 44.7%. Besides, the inhibition entry in [11] was “Dde”.
On to `CCOc1ccc(-c2cncnc2-c2cc(OC)c(OC)c(OC)c2)cc1Cl`, for which the Activity in [12] came to 54%; in data set [13], 0.82%; in data set [14] it was 13%; in [15] it was 47.6%; in [16] it was 17.4%; in [17], 24.7%. Further, the Activity in [18] was 47.6%; in data set [20], 3.98%; in [21] it was 100%; in data set [22], 36.8%; in data set [24] it was 3.88 g; in data set [25], “Non-Toxic”. Also, the Activity result in [26] was “Non-Toxic”; in [29], 1.42 g; in [30], 23%; in data set [31], 40%; in data set [32] it was 21%; in data set [33], “Non-Toxic”. In data set [34], the Activity entry is on record as “Toxic”. The viability at 0.4 µM in data set [19] was determined as 11.5%. In addition, in data set [23], the CL/F is 84.2 mL/min/kg. In data set [27], the inhibition at 40 µM came out at 65%. Also, 22.3 µM corresponded to half-maximal inhibition in [28] (IC50).
